Values quoted from earlier work, collected in US7935365B2, “Glycerophospholipids for the improvement of cognitive functions” (Enzymotec, Ltd., priority 2003, dated 2011).
Read-outs that look alike come from different tables or passages of the source.

Row | Structure (SMILES) | Improvement of the ADHD index, previously reported (Rugino and Copley (2001)) | Improvement of the ADHD index, previously reported (Alhambra et al. (1995))
1 | NC(=O)C[S+]([O-])C(c1ccccc1)c1ccccc1 (centres unmarked) [modafinil] | > 2.5 SD | 
2 | COC(=O)C(c1ccccc1)C1CCCCN1 (racemic) [methylphenidate, DL-threo-Methylphenidate] |  | exceed 80%
